# Laboratory results reported in article PMC10974084, “Combination of Betulinic Acid Fragments and Carbonic Anhydrase Inhibitors—A New Drug Targeting Approach” (Pharmaceutics, 2024).
# Like-named read-outs stand apart in the source and are kept apart here.
# Legend:
# [1] = system: MCF-7 breast cancer cells; assay: SRB cytotoxicity assay, MCF-7; type: cell-based; settings: Homo sapiens, read-out: IC50 MCF-7
# Experimental: (§1) All of the compounds were dissolved in dimethyl sulfoxide (DMSO) to achieve a 20 mM stock solution. Cells were seeded in cell culture flasks 24 h before treatment. The treatment was performed for 24 h.
# (§2) The cytotoxicity of the drugs was determined in 2D tumor models using sulforhodamine B (SRB) assays. Treatment started 24 h after seeding the tumor cells in 96-well plates as previously described.
# [2] = system: A2780 ovarian cancer cells; assay: SRB cytotoxicity assay, A2780; type: cell-based; settings: Homo sapiens, read-out: IC50 A2780
# Experimental: as §1, §2
# A375 melanoma cells = assay: SRB cytotoxicity assay, A375; type: cell-based; settings: Homo sapiens, read-out: IC50 A375
# Experimental: as §1, §2
# Hs578T spheroids = assay: Spheroid cytotoxicity assay (luciferase), Hs578T; type: cell-based, human; settings: for IC50: Homo sapiens, Hs-578T, 168 h, read-out: IC50 Hs578T spheroids; for resistance of Hs578T spheroids versus MDA-MB-231 spheroids: difference of spheroid IC50 values
# Experimental: (§3) To determine cytotoxicity in the 3D tumor models, spheroid cytotoxicity assays were performed as previously described. […] For generation of single tumor spheroids, tumor cells resuspended in culture medium were seeded into 96-well plates, which were coated before with 0.7% agarose (SeaKem® GTG™ Agarose, Lonza, Basel, Switzerland). After the formation of spheroids (48 h), they were treated with serial dilutions of compounds. Measurements of luciferase activity were performed on day 7, after supplementation with D-luciferin (Perkin Elmer, Rodgau, Germany), on a Tecan Spark microplate reader (Tecan, Männedorf, Switzerland). Generation of dose-response curves and calculation of IC50 values including standard deviations were accomplished using GraphPad Prism8.
# (§4) Since the tumor cells stably express luciferase, analysis of spheroid growth and response to therapy is accomplished by measurement of bioluminescent signal intensity.
# MDA-MB-231 spheroids = assay: Spheroid cytotoxicity assay (luciferase), MDA-MB-231; type: cell-based, human; settings: Homo sapiens, MDA-MB-231, 168 h, read-out: IC50 MDA-MB-231 spheroids
# Experimental: as §3, §4
# MCF-7 cells [3] = assay: Annexin V / propidium iodide assay, MCF-7; type: cell-based, human; settings: double the IC50 concentration
# Experimental: The Annexin V assays were performed as previously described.
# Compounds 3, 5, and 9 were used to study cell death mechanisms and cell cycle analysis. A feature that can be used as it is only characteristic of apoptotic but not necrotic cells is Annexin V staining. During apoptosis, in addition to cell shrinkage, chromatin condensation, and the formation of apoptotic bodies, phosphatidylserine, which is originally inside the membrane, is translocated to the outside. There is a rapid change in phospholipid symmetry in the cell membrane, a process occurring so rapidly that the barrier function of the cell membrane is initially still present. The cellular protein Annexin V can bind to the displaced phosphatidylserine in the presence of calcium. To test for the presence of the cell membrane barrier, the non-membrane-permeable dye propidium iodide was added, which intercalates into the DNA. The flow cytometric data were divided into four areas (live cells, early and late apoptotic cells, and necrotic cells). Untreated cells were used as controls. The results are depicted in Figure 3. […] Even after 48 h, no significant difference between compound 3 and 5 was detected (55–60% live cells, 8% early apoptotic cells, 28–36% late apoptotic cells, 0.5–3% necrotic cells). […] Since both compounds are sulfonamides of betulin, the similar results are not surprising.
# MCF-7 cells [4] = assay: Cell cycle analysis, MCF-7; type: cell-based, human; settings: double the IC50 concentration
# Experimental: (§5) Cell cycle analyses were performed as previously described.
# (§6) Changes in the genetic material and the resulting mutations, which can affect the formation of tumors, usually occur during the proliferation process in the cell. A human cell passes through all four phases of this cell cycle within 20 h, with the set of its chromosomes varying between single and double. During apoptosis, fragmentation of DNA occurs along with an associated decrease in chromosome content. Fixation of cells with ethanol leads to permeabilization of the cell membrane and thus to loss of smaller DNA fragments, so that apoptotic cells contain less than the single set of chromosomes detected by a SubG1 peak. Given the different amounts of DNA in the cells and the proportional binding of propidium iodide to the DNA, the different fluorescence intensities can be used to infer the distribution of cells in the respective phases of the cell cycle.
# The MCF-7 breast cancer cell line was used in the experiments. An untreated sample was also included in the cell cycle analysis as a control. The results are depicted in Figure 4.
# [5] = system: tumor cell lines (2D and 3D tumor models); assay: Cytotoxicity summarised across tumor models; type: cell-based
# Experimental: as §2
# To determine cytotoxicity in the 3D tumor models, spheroid cytotoxicity assays were performed as previously described. The luciferase-expressing, breast cancer cell lines MDA-MB-231 and Hs578T and derived spheroids were cultivated in RPMI medium (Sigma-Aldrich, Taufkirchen, Germany) containing 10% fetal bovine serum (BioWest, Nuaillé, France) and […] penicillin/streptomycin (Sigma-Aldrich) at 37 °C/5% CO2 in a humid atmosphere. For generation of single tumor spheroids, tumor cells resuspended in culture medium were seeded into 96-well plates, which were coated before with 0.7% agarose (SeaKem® GTG™ Agarose, Lonza, Basel, Switzerland). After the formation of spheroids (48 h), they were treated with serial dilutions of compounds. Measurements of luciferase activity were performed on day 7, after supplementation with D-luciferin (Perkin Elmer, Rodgau, Germany), on a Tecan Spark microplate reader (Tecan, Männedorf, Switzerland). Generation of dose-response curves and calculation of IC50 values including standard deviations were accomplished using GraphPad Prism8.
# [6] = target: recombinant human carbonic anhydrase IX (Homo sapiens, UniProt Q16790); assay: hCA IX esterase assay with p-nitrophenyl acetate; settings: for Ki relative to the unconjugated inhibitors: higher Ki than unconjugated inhibitors
# Experimental: In this measurement, the enzymatically catalyzed hydrolysis of p-nitrophenyl acetate to p-nitrophenol was investigated. […] This was followed by measurement of the v-S-characteristics with inhibitor. […] For each run, 2 experimental series (biological replicate) were prepared simultaneously and measured for 10 min at a measurement interval of 8 s, also as a two-fold determination (technical replicate). […] The resulting reaction velocities, calculated from a calibration curve with p-nitrophenole under the same conditions, were plotted against the substrate concentration. The kinetic evaluation for competitive inhibition was then performed with the program GraphPad Prism.
# A375 cells = assay: Cell cycle analysis, A375; type: cell-based, human; settings: double the IC50 concentration
# Experimental: as §5, §6
# In addition, after 48 h of treatment, there was a decrease in the S and M phases for all treatments, which is similar to that noted after 24 h. […] As in the 24 and 48 h tests, there was a decrease in M- and S-phase cells and an increase in G1/G0 phase cells after 72 h compared with the untreated control. Several independent experiments by different groups show similar results with MCF-7 [42, 43, 44]. Due to a lack of DNA fragmentation in MCF-7 cells, the human melanoma cell line A375 was used as a second cell line for comparison (Figure 4d). […] The effect of compound 3 is even more pronounced with an incubation time of 48 or 72 h. An increase in the SubG1 peak was observed from 0.7% in the control to up to 60% after 72 h of treatment.
# [7] = MCF7, SRB assay, 96 h incubation, mean ± SD
# [8] = A2780, SRB assay, 96 h incubation, mean ± SD
# [9] = A-375, SRB assay, 96 h incubation, mean ± SD
# [10] = 7 days of treatment, 3 independent experiments
# [11] = Homo sapiens; SRB assays, A375, MCF-7, A2780; read-out: IC50 values (range over cell lines of Table 1)
# [12] = Homo sapiens; read-out: cytotoxicity range in 2D and 3D tumor models
Structure (SMILES),"IC50 [1, 7]","IC50 [2, 8]",IC50 (A375 melanoma cells; [9]),resistance of Hs578T spheroids versus MDA-MB-231 spheroids (Hs578T spheroids),"late apoptotic cells (MCF-7 cells [3]; MCF-7, 24 h)","early apoptotic cells (MCF-7 cells [3]; MCF-7, 48 h)","effect on cell viability (Annexin V) (MCF-7 cells [3]; MCF-7, 72 h)","cells in SubG1 phase (MCF-7 cells [4]; MCF-7, 72 h)","IC50 [5, 11]","IC50 [5, 12]",Ki [6],Ki relative to the unconjugated inhibitors [6],IC50 (Hs578T spheroids),IC50 (MDA-MB-231 spheroids),"IC50 ([1]; MCF7, 96 h)","IC50 ([2]; A2780, 96 h)","IC50 (A375 melanoma cells; A-375, 96 h)",also measured
"Nc1nnc(S(N)(=O)=O)s1 [Compound 6, 5-Amino-1,3.4-thiadiazole-2-sulfonamide]",> 100 µM,> 100 µM,> 100 µM,–,–,–,–,–,–,–,–,–,–,–,–,–,–,–
"C=C(C)C1CCC2(COC(=O)CCC(=O)NCCS(N)(=O)=O)CCC3(C)C(CCC4C5(C)CCC(OC(C)=O)C(C)(C)C5CCC43C)C12 (stereo not drawn) [Compound 5, (3β)-3-(Acetyloxy)-lup-20(29)-en-28-yl 4-{[2-(aminosulfonyl)-ethyl]amino}-4-oxobutanoate]",8.6 ± 0.7 µM,11.4 ± 1.4 µM,9.4 ± 0.5 µM,only about three-fold differences,16%,8%,comparably strong effect,12.1%,6.4 to 11.4 µM,6.4 to 30.1 µM,1100 ± 310 nM,approximately 10 fold,–,–,–,–,–,"IC50 (Hs578T spheroids; [10]): 30.1 ± 0.7 µM; IC50 (MDA-MB-231 spheroids; [10]): 10.3 ± 2.7 µM; cells in G1/G0 phase (MCF-7 cells [4]; MCF-7, 48 h): 83.9%; cells in M phase (MCF-7 cells [4]; MCF-7, 48 h): 5.8%; cells in S phase (MCF-7 cells [4]; MCF-7, 48 h): 1.8%; cells in SubG1 phase (MCF-7 cells [4]; MCF-7, 48 h): 8.1%"
"C=C(C)C1CCC2(C(=O)NCCS(N)(=O)=O)CCC3(C)C(CCC4C5(C)CCC(OC(C)=O)C(C)(C)C5CCC43C)C12 (stereo not drawn) [Compound 3, (3β)-28-{[2-(Aminosulfonyl)-ethyl]-amino}28-oxolup-20(29)-en-3-yl Acetate]",7.5 ± 0.7 µM,10.4 ± 0.8 µM,6.4 ± 0.7 µM,–,16%,8%,–,8.1%,6.4 to 11.4 µM,6.4 to 30.1 µM,1040 ± 390 nM,approximately 10 fold,–,–,–,–,–,"early apoptotic cells (MCF-7 cells [3]; MCF-7, 72 h): 9%; late apoptotic cells (MCF-7 cells [3]; MCF-7, 72 h): 53%; live cells (MCF-7 cells [3]; MCF-7, 72 h): 34%; necrotic cells (MCF-7 cells [3]; MCF-7, 72 h): 4.5%; cells in G1/G0 phase (A375 cells; A375, 24 h): 46.9%; cells in M phase (A375 cells; A375, 24 h): 15.8%; cells in S phase (A375 cells; A375, 24 h): 21.2%; cells in SubG1 phase (A375 cells; A375, 24 h): 11.9%; SubG1 peak (A375 cells; A375, 72 h, control 0.7%): up to 60%"
"C=C(C)C1CCC2(COC(=O)CCC(=O)Nc3nnc(S(N)(=O)=O)s3)CCC3(C)C(CCC4C5(C)CCC(OC(C)=O)C(C)(C)C5CCC43C)C12 (stereo not drawn) [Compound 9, (3β)-3-(Acetyloxy)-lup-20(29)-en-28-yl-4-{[5-(aminosulfonyl)-1,3,4-thiadiazol-2-yl]-amino}-4-oxobutanoate]",–,–,–,only about three-fold differences,–,–,comparatively smaller decrease in cell viability,6.5%,–,–,1250 ± 250 nM,approximately 10 fold,28.4 ± 0.3 µM,8.1 ± 1.4 µM,6.2 ± 0.2 µM,8.7 ± 2 µM,7.2 ± 0.6 µM,"effect on cell survival compared to untreated control (MCF-7 cells [3]; MCF-7, 24 h): no difference; IC50 ([5]; Homo sapiens, read-out: cytotoxicity range in 2D and 3D tumor models): 6.4 to 30.1 µM"
"NS(=O)(=O)c1nnc(NC(=O)CCC(=O)O)s1 [Compound 7, 4 {[5-(Amino sulfonyl)-1,3,4-thiadiazol-2-yl]-amino}-4-oxobutanoic Acid]",–,–,–,–,–,–,–,–,–,–,–,–,> 100 µM,> 100 µM,> 100 µM,> 100 µM,> 100 µM,–
"C=C(C)C1CCC2(COC(=O)CCC(=O)O)CCC3(C)C(CCC4C5(C)CCC(OC(C)=O)C(C)(C)C5CCC43C)C12 (stereo not drawn) [Compound 4, 4-{[(3beta)-3-(Acetyloxy)-lup-20(29)-en-28-yl]-oxy}-4-oxobutanoic Acid]",9.8 ± 0.6 µM,12.3 ± 3.9 µM,12.1 ± 1.5 µM,–,–,–,–,–,–,–,–,–,–,–,–,–,–,melting point: 122 to 125 °C
